Results on 14 compounds are retold here after patent US5401647A, “Method of preparing Limulus amoebocyte lysate” (Seikagaku Kogyo Kabushiki Kaisha (Seikagaku Corporation), priority 1990, dated 1995).

The target in the assay is T1, Limulus amoebocyte lysate factor G (Tachypleus tridentatus, UniProt Q27082).
T1 construct: Prepared from Japanese horseshoe crab, T. tridentatus; from tissue; host or cells: amoebocyte (hemocyte) lysate of the Japanese horseshoe crab T. tridentatus, factor G fraction
T1 sequence (Q27082 20-673): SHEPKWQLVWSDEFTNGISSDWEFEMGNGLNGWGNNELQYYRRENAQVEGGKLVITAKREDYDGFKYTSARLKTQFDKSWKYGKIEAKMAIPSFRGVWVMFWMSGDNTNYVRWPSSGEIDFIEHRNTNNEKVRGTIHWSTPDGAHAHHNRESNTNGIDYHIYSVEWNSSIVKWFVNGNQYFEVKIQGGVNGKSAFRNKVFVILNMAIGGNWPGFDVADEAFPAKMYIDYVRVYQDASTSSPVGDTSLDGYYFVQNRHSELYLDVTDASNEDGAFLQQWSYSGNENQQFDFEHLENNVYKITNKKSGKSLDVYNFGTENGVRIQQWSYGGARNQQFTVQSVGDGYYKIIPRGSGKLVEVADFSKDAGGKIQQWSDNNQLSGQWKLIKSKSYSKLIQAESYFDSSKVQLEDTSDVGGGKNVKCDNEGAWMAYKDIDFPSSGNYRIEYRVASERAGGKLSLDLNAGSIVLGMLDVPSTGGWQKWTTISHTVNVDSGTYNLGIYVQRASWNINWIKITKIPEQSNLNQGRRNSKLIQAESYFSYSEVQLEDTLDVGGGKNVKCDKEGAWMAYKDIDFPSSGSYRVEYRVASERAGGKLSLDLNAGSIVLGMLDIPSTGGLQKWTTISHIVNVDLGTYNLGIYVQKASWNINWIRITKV
T1 sequence (Q27083 32-309 partner): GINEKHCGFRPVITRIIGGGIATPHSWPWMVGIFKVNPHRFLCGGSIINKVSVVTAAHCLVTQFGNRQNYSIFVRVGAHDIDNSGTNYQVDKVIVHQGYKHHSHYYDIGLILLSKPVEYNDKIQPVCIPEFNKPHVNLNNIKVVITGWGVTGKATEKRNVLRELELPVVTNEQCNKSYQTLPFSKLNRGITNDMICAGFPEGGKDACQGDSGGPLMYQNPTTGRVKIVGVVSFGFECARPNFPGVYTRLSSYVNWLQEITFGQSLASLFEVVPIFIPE
Put plainly: Activation titer determination method of factor G activation inhibiting substance (GI). The class given is biochemical, T. tridentatus. To be noted: 10 pg GA (No. 106); 37° C., 30 minutes; GI amount causing 100% inhibition of factor G activation = 100 units. As for the experimental part:
The factor G activation inhibitory titer was measured according to the following activation titer determination method of factor G activation inhibiting substance and represented as units per mg. Activation titer determination method of factor G activation inhibiting substance (hereinafter, sometimes abbreviated as GI)
A 200 μl portion of a reaction mixture has the following composition. […]
After incubating the above-described reaction mixture at 37° C. for 30 minutes, 0.5 ml each of 0.04% sodium nitrite (0.48M HCl solution), 0.3% ammonium sulfamate and 0.07% N-1-naphthylethylenediamine dihydrochloride was added to the reaction mixture to effect coloration by diazo-coupling. The amount of released pNA was determined by measuring an absorbance at 545 nm (A545). GI activity was calculated according to the following equation; [formula]
Under these conditions, the GI amount which causes 100% inhibition of an activation of factor G by GA is defined as 100 units.
(Note 1) Water-insoluble samples are dissolved in 0.3M NaOH and neutralized with an equal volume of 0.3M HCl.
(Note 2) GPC fractionation-purified product of the curdian sonicated product prepared in the above-described Preparation Example 5 (Table-2, No. 106, molecular weight 216,000).
(Note 3) Prepared from Japanese horseshoe crab, T. tridentatus according to the article [T. Obayasi et al., Clin. Chim. Acta., 149, 55-65 (1985)].
On to `OC[C@H]1O[C@@H](O[C@H]2[C@H](O)[C@@H](CO)OC(O)[C@@H]2O)[C@H](O)[C@@H](O)[C@@H]1O` (some centres unmarked) [compound 5, Laminaribiose], for which the “Factor G Activation Inhibitory Titer” value is on record as 214 unit/mg.

As to `OC[C@H]1O[C@@H](O[C@@H]2[C@@H](O)[C@H](O[C@@H]3[C@@H](O)[C@H](O[C@@H]4[C@@H](O)[C@H](O[C@@H]5[C@@H](O)[C@H](O[C@@H]6[C@@H](O)[C@H](O[C@H]7[C@H](O)[C@@H](CO)OC(O)[C@@H]7O)O[C@H](CO)[C@H]6O)O[C@H](CO)[C@H]5O)O[C@H](CO)[C@H]4O)O[C@H](CO)[C@H]3O)O[C@H](CO)[C@H]2O)[C@H](O)[C@@H](O)[C@@H]1O` (some centres unmarked) [compound 10, Laminariheptaose], the “Factor G Activation Inhibitory Titer” value is on record as 103,000 unit/mg.

As to “Partially sulfated laminaran [compound 44]”, the “Factor G Activation Inhibitory Titer” value was 117,000 unit/mg.

As for “Partially carboxymethylated (1→3)-β-D-glucan (DS = 0.03) GPC fraction 2 [compound 40]”, the “Factor G Activation Inhibitory Titer” value is recorded as 91,200 unit/mg.

For the compound `OC[C@H]1O[C@@H](O[C@@H]2[C@@H](O)[C@H](O[C@@H]3[C@@H](O)[C@H](O[C@@H]4[C@@H](O)[C@H](O[C@@H]5[C@@H](O)[C@H](O[C@H]6[C@H](O)[C@@H](CO)OC(O)[C@@H]6O)O[C@H](CO)[C@H]5O)O[C@H](CO)[C@H]4O)O[C@H](CO)[C@H]3O)O[C@H](CO)[C@H]2O)[C@H](O)[C@@H](O)[C@@H]1O` (some centres unmarked) [compound 9, Laminarihexaose], the “Factor G Activation Inhibitory Titer” value is reported as 55,000 unit/mg.

Take “Partially methylated (1→3)-β-D-glucan [compound 43]”: the “Factor G Activation Inhibitory Titer” value is reported as 93,300 unit/mg.

For “Partially carboxymethylated (1→3)-β-D-glucan (DS = 0.03) GPC fraction 3 [Sample No. 41]”, the “Factor G Activation Inhibitory Titer” value is 80,000 unit/mg.

For “Partially carboxymethylated (1→3)-β-D-glucan (DS = 1.20) [compound 107]”, the “Factor G Activation Inhibitory Titer” value was < 100 unit/mg.

On to “Partially carboxymethylated (1→3)-β-D-glucan (DS = 0.03) GPC fraction 1 [compound 39]”, for which the “Factor G Activation Inhibitory Titer” value is reported as 117,000 unit/mg.

`OC[C@H]1O[C@@H](O[C@@H]2[C@@H](O)[C@H](O[C@@H]3[C@@H](O)[C@H](O[C@@H]4[C@@H](O)[C@H](O[C@H]5[C@H](O)[C@@H](CO)OC(O)[C@@H]5O)O[C@H](CO)[C@H]4O)O[C@H](CO)[C@H]3O)O[C@H](CO)[C@H]2O)[C@H](O)[C@@H](O)[C@@H]1O` (some centres unmarked) [compound 8, Laminaripentaose]: the “Factor G Activation Inhibitory Titer” value was 39,800 unit/mg.

`OC[C@H]1O[C@@H](O[C@@H]2[C@@H](O)[C@H](O[C@@H]3[C@@H](O)[C@H](O[C@H]4[C@H](O)[C@@H](CO)OC(O)[C@@H]4O)O[C@H](CO)[C@H]3O)O[C@H](CO)[C@H]2O)[C@H](O)[C@@H](O)[C@@H]1O` (some centres unmarked) [compound 7, Laminaritetraose]: the “Factor G Activation Inhibitory Titer” value is recorded as 20,000 unit/mg.

Turning to `OC[C@H]1O[C@@H](O[C@@H]2[C@@H](O)[C@H](O[C@H]3[C@H](O)[C@@H](CO)OC(O)[C@@H]3O)O[C@H](CO)[C@H]2O)[C@H](O)[C@@H](O)[C@@H]1O` (some centres unmarked) [compound 6, Laminaritriose], the “Factor G Activation Inhibitory Titer” value is 4,670 unit/mg.

Regarding “Partially carboxymethylated laminaran [compound 42]”, the “Factor G Activation Inhibitory Titer” value was 3,630,000 unit/mg.

With `OC[C@H]1OC(O)[C@H](O)[C@@H](O)[C@@H]1O` (some centres unmarked) [compound 108, Glucose], the “Factor G Activation Inhibitory Titer” value is listed as < 100 unit/mg.
